Assay results taken from patent US10087187B2, “Imidazopyridazine derivatives as PI3KB inhibitors” (Janssen Pharmaceutica NV, priority 2014, dated 2018).
Read-outs that look alike come from different tables or passages of the source.

Assays:
[1] = system: Akt phosphorylated at Thr308 in PC-3 cells; assay: Cellular assay: phosphorylation of Akt (Thr308) in PC-3 cells, MSD ELISA; assay type: cell-based; settings: 60 min incubation with compound, read-out: IC50 pAkt_Thr308
Description: (§1) Cellular activity of PI3Kβ inhibitors was determined by quantifying the phosphorylation of Akt in PC-3 cells. Akt phosphorylated at Ser473 and Thr308 were measured using an enzyme-linked immunosorbent assay (ELISA; Meso Scale Discovery (MSD), Gaithersburg, Md.) and specific primary antibodies from MSD.
(§2) On day 1, PC3 cells (ATCC # […]) were seeded into PerkinElmer MW96 plates at 25.000 cells per well, in 75 μl complete culture medium (DMEM (Dulbecco's Modified Eagle's Medium) high glucose, AQmedia™, D0819, Sigma-Aldrich) containing 10% heat inactivated FCS (Fetal Bovine Serum) and incubated at 37° C., 5% CO2 during 24 hours. On day 2, compound or DMSO (dimethyl sulfoxide) (0.3%) was added and cells were further incubated for 60 min at 37° C., 5% CO2 in a total volume of 100 μl of medium.
(§3) The phosphoprotein assay was executed according to vendor instructions in the Phospho-Akt (Ser473) Assay Whole Cell Lysate Kit (MSD # K15100D-3) and the Phospho-Akt (Thr308) Assay Whole Cell Lysate Kit (MSD # K151DYD-3) using the lysis, blocking and wash buffer provided.
(§4) Briefly, at the end of the cell treatment period, media were removed by aspiration and adherent cells were lysed in 50 μl ice-cold lysis buffer. MSD plates are supplied pre-coated with capture antibodies for Phospho-Akt (Ser473 and Thr308). After blocking, lysates from tissue culture plates were added and plates were washed. Then, a solution containing the detection antibody (anti-total Akt conjugated with an electrochemiluminescent compound-MSD Sulfo-tag label) was added. The signals were detected using an MSD SECTOR Imager 6000 and are proportional to the phospho-Akt titres.
(§5) Data were processed. The percentage of inhibition was plotted against the log concentration of test compounds, and the sigmoidal log concentration-effect curve of best fit was calculated by nonlinear regression analysis. From these concentration-response curves, the IC50 values were calculated. Five concentrations were used for curve fitting.

[2] = molecular target: PIK3Cγ_h (Homo sapiens (Human), UniProt P48736); assay: KINOMEscan enzyme binding assay, PIK3Cγ; settings: DiscoveRx
Description: (§6) Enzyme Binding Assays (KINOMEscan®) Kinase enzyme binding affinities of compounds disclosed herein were determined using the KINOMEscan technology performed by DiscoveRx Corporation, San Diego, Calif., USA (www.kinomescan.com).

[3] = molecular target: MTOR_h (Homo sapiens (Human), UniProt P42345); assay: KINOMEscan enzyme binding assay, MTOR; settings: DiscoveRx
Description: as §6

[4] = molecular target: PIK3Cβ_h (Homo sapiens (Human), UniProt P42338); assay: KINOMEscan enzyme binding assay, PIK3Cβ; settings: DiscoveRx
Description: as §6, with “(www.kinomescan.com). Table A reports the obtained Kd values (nM), with the Kd being the inhibitor binding constant: […]” for “(www.kinomescan.com).”

[5] = molecular target: PIK3Cα_h (Homo sapiens (Human), UniProt P42336); assay: KINOMEscan enzyme binding assay, PIK3Cα; settings: DiscoveRx
Description: as §6

[6] = system: Akt phosphorylated at Ser473 in PC-3 cells; assay: Cellular assay: phosphorylation of Akt (Ser473) in PC-3 cells, MSD ELISA; assay type: cell-based; settings: 60 min incubation with compound, read-out: IC50 pAkt_S473
Description: as §1, §2, §3, §4, §5

[7] = molecular target: PIK3Cδ_h (Homo sapiens (Human), UniProt O00329); assay: KINOMEscan enzyme binding assay, PIK3Cδ; settings: DiscoveRx
Description: as §6, with “(www.kinomescan.com). Table A reports the obtained Kd values (nM), with the Kd being the inhibitor binding constant: […]” for “(www.kinomescan.com).”

PIK3Cα_h, sequence (P42336 whole entry): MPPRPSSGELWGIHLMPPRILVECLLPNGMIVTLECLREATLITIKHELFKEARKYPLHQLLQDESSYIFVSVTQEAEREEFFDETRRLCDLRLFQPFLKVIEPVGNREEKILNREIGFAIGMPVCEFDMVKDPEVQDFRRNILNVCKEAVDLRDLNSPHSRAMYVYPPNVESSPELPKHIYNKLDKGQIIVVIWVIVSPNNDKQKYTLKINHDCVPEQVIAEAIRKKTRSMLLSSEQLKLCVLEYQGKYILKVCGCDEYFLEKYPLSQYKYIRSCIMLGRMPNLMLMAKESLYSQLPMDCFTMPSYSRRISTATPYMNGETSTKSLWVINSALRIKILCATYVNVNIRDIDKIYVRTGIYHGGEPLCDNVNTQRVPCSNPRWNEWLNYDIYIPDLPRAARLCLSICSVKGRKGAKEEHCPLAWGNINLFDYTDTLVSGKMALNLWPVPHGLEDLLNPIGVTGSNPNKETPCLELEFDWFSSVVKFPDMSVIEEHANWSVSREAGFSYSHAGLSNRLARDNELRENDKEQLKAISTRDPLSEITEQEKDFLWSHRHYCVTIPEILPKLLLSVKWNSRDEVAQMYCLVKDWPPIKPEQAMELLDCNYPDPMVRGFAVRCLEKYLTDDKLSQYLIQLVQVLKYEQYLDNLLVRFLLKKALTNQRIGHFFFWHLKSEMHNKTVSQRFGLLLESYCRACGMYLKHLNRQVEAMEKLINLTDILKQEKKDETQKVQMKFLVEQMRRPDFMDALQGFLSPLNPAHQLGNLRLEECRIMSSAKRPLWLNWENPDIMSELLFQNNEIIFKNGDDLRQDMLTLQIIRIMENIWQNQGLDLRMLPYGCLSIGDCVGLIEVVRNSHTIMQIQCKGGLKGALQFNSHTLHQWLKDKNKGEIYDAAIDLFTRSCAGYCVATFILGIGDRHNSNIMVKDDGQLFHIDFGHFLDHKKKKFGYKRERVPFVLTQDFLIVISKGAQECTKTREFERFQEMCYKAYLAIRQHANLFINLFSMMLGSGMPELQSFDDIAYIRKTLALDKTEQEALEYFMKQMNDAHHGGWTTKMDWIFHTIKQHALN
PIK3Cδ_h, sequence (O00329 whole entry): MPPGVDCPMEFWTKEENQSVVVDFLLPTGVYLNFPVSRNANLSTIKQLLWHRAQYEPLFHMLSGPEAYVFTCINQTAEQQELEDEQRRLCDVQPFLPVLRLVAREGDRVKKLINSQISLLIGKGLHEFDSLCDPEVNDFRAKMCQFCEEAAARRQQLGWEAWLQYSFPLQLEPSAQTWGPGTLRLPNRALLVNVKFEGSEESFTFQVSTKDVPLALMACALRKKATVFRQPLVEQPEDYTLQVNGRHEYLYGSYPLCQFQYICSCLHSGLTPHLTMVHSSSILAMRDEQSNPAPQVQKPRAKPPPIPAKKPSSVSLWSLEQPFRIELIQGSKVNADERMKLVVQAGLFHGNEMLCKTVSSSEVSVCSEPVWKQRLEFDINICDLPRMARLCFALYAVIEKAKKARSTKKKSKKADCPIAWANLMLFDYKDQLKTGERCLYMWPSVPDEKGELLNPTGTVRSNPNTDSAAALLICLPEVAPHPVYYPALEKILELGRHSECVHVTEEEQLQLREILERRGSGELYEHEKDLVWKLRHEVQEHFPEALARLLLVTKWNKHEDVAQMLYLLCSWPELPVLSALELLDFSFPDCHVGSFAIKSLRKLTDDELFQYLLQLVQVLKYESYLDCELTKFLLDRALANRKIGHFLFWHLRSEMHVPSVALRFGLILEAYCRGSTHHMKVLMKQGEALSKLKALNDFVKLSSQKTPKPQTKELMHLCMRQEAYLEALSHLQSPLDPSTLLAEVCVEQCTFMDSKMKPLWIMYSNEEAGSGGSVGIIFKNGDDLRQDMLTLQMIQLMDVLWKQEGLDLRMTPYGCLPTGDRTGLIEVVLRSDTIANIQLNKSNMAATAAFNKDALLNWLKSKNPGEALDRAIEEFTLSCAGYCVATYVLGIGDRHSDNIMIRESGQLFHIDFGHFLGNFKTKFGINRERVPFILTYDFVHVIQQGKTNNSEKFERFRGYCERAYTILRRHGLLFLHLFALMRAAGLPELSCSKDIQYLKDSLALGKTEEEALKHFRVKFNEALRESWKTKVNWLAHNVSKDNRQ
PIK3Cγ_h, sequence (P48736 whole entry): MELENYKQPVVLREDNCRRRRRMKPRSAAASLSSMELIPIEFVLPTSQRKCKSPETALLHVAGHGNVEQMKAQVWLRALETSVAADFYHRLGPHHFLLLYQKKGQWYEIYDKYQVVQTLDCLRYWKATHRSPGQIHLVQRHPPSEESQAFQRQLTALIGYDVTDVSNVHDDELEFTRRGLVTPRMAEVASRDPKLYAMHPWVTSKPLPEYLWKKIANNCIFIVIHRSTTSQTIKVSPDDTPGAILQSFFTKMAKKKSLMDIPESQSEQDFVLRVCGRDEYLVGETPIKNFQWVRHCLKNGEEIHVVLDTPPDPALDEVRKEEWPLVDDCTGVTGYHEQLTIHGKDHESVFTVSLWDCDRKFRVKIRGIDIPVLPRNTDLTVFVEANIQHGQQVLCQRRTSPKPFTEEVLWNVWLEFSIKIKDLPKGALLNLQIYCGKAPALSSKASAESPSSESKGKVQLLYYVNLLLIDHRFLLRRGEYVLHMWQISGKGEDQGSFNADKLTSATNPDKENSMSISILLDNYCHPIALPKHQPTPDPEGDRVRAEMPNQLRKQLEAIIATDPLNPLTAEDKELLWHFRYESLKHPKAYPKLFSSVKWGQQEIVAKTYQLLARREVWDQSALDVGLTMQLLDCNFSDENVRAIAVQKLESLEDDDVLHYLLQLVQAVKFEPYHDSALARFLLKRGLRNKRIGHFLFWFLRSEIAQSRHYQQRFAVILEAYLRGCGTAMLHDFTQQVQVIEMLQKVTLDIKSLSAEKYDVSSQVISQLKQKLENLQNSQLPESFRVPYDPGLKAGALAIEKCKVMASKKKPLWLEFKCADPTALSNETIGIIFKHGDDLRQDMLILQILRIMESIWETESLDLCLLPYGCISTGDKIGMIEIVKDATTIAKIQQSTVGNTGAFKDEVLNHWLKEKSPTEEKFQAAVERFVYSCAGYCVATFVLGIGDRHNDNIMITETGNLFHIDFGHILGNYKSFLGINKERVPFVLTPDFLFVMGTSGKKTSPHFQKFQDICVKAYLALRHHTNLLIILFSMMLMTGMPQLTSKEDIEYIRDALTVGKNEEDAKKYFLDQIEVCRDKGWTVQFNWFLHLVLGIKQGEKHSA
PIK3Cβ_h, sequence (P42338 whole entry): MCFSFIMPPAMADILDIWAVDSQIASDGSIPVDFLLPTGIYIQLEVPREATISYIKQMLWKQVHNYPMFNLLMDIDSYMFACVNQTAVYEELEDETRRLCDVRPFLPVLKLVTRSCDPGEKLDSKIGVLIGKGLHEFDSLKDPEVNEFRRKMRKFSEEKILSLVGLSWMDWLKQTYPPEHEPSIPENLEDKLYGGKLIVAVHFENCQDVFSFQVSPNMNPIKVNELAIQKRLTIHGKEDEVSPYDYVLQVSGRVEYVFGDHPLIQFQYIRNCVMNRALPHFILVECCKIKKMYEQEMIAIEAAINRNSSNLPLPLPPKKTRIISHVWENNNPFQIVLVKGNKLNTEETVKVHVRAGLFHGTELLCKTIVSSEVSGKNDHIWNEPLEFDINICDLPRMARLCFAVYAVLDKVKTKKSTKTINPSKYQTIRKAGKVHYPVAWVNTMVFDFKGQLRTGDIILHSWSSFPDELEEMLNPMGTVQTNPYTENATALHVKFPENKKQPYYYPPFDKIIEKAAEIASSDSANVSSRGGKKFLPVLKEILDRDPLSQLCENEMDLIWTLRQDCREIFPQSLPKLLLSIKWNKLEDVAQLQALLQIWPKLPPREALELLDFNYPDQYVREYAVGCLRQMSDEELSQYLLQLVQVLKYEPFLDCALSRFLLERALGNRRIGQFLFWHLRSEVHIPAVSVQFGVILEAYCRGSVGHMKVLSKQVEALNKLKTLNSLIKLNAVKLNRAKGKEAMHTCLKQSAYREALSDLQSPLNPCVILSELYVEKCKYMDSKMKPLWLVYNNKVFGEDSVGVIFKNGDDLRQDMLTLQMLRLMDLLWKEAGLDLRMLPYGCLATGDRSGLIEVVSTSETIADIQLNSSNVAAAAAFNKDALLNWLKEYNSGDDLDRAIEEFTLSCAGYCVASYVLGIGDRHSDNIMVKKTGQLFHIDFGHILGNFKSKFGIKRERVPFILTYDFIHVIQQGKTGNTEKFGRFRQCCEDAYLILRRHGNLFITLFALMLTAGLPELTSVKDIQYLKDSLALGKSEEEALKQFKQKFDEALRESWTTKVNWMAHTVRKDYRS

Row | SMILES | IC50 ([1]; Homo sapiens, PC-3, 1 h) | Kd [2] | Kd [3] | Kd [4] | Kd [5] | IC50 ([6]; Homo sapiens, PC-3, 1 h) | Kd [7] | IC50 [1] | IC50 [6]
1 | Cc1c(Cc2c(CN(C)CCS(C)(=O)=O)nc3c(N)cc(N4CCOCC4)nn23)cccc1C(F)(F)F [Compound 1] | 74 nM | > 30.2 µM | 23.4 µM | 2.4 nM | 16.6 µM | ~34 nM | 513 nM | – | –
2 | Cc1c(Cc2c(CNCCS(C)(=O)=O)nc3c(N)cc(N4CCOCC4)nn23)cccc1C(F)(F)F [Compound 2] | 186 nM | > 30.2 µM | 23.4 µM | 1.4 nM | 8.13 µM | 138 nM | 178 nM | – | –
3 | Cc1c(Cc2c(CNCCO)nc3c(N)cc(N4CCOCC4)nn23)cccc1C(F)(F)F [Compound 3] | ~71 nM | 15.5 µM | 7.94 µM | 1.1 nM | 9.55 µM | 120 nM | 105 nM | – | –
4 | Cc1c(Cc2c(CNCCO)nc3c(-c4ncc[nH]4)cc(N4CCOCC4)nn23)cccc1C(F)(F)F [Compound 4] | ~120 nM | 1.15 µM | > 3.31 µM | 3.3 nM | 0.933 µM | ~135 nM | 74 nM | – | –
5 | Cc1nc2c(-c3cnc[nH]3)cc(N3CCOCC3)nn2c1Cc1cccc(C(F)(F)F)c1C [Compound 5] | ~48 nM | 10.2 µM | 2.4 µM | 6 nM | 0.617 µM | ~59 nM | 316 nM | – | –
6 | Cc1nc2c(N)cc(N3CCOCC3)nn2c1Cc1cccc(C(F)(F)F)c1C [Compound 6] | ~85 nM | > 30.2 µM | > 30.2 µM | 5 nM | > 30.2 µM | 123 nM | 955 nM | – | –
7 | Cc1nc2c(-c3ncc[nH]3)cc(N3CCOCC3)nn2c1Cc1cccc(C(F)(F)F)c1C [Compound 7] | 135 nM | > 30.2 µM | > 10 µM | 15 nM | > 3.31 µM | 269 nM | 525 nM | – | –
8 | Cc1nc2c(-c3ccn[nH]3)cc(N3CCOCC3)nn2c1Cc1cccc(C(F)(F)F)c1C [Compound 8] | 204 nM | 14.5 µM | 0.525 µM | 31 nM | 30.2 µM | 263 nM | 891 nM | – | –
9 | Cc1nc2c(C(=O)O)cc(N3CCOCC3)nn2c1Cc1cccc(C(F)(F)F)c1C [Compound 9] | 316 nM | 5.25 µM | 12.9 µM | 1.4 nM | 1.35 µM | 513 nM | 174 nM | – | –
10 | Cc1nc2c(C(N)=O)cc(N3CCOCC3)nn2c1Cc1cccc(C(F)(F)F)c1C [Compound 10] | > 513 nM | > 30.2 µM | > 30.2 µM | 20 nM | > 30.2 µM | 501 nM | 12600 nM | – | –
11 | Cc1nc2c(C(N)=O)cc(N3CCOCC3)nn2c1Cc1cccc(Cl)c1C [Compound 11] | 355 nM | 6.92 µM | 22.4 µM | 21 nM | 2.69 µM | ~158 nM | 955 nM | – | –
12 | Cc1cccc(Cc2c(C)nc3c(C(=O)O)cc(N4CCOCC4)nn23)c1C [Compound 12] | ~151 nM | 6.17 µM | 9.33 µM | < 1.5 nM | 1.07 µM | ~316 nM | 69 nM | – | –
13 | Cc1nc2c(C(=O)O)cc(N3CCOCC3)nn2c1Cc1cccc(Cl)c1C [Compound 13] | ~263 nM | 3.55 µM | 9.55 µM | 0.5 nM | 0.525 µM | > 513 nM | 56 nM | – | –
14 | Cc1c(Cc2c(CO)nc3c(N)cc(N4CCOCC4)nn23)cccc1C(F)(F)F [Compound 14] | – | > 8.88 µM | > 5.69 µM | 1.3 nM | > 9.18 µM | – | 207 nM | ~38 nM | ~63 nM
15 | Cc1c(Cc2c(CO)nc3c(N)cc(N4CCOCC4)nn23)cccc1C(F)(F)F [Compound 14a] | – | > 10 µM | 6.76 µM | 1.2 nM | > 30.2 µM | – | 225 nM | 38 nM | ~46 nM
